# Experimental data: patent publication US10676467B2 (Washington University, priority 2017, dated 2020)
# Values joined by “and” are separate entries in the source; they are usually repeats but may differ in a detail not shown here. Identical values can stand only once. “Also recorded” adds a separate entry of the source. Like-named read-outs stand apart in the source and are kept apart here.
# What was measured:
# S1P2 = S1P2 (Homo sapiens (Human), UniProt O95136); experiment: [32P]S1P competitive binding assay on cell membranes; conditions: competition against [32P]S1P, mean ± SD
# S1P2, sequence (O95136 whole entry): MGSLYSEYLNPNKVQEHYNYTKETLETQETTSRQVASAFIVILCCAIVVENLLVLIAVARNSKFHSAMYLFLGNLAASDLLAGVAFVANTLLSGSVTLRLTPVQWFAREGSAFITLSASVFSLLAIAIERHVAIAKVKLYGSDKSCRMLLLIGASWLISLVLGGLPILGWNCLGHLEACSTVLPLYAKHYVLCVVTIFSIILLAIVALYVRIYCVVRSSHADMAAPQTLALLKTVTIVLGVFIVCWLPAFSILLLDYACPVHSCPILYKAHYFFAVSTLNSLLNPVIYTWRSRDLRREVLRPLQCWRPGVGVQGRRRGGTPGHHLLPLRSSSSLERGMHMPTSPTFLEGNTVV
# Method: (§1) Competitive binding was performed for 60 min at room temperature and terminated by collecting the membranes onto 96-well glass fiber (GF/B) filtration plates (Millipore, Billerica, Mass.). Each filter was washed with 200 μL of assay buffer for five times. The filter bound radionuclide was measured by a Beckman LS3801 scintillation counter using Cherenkov counting. The reported IC50 values were calculated using the 4 parameter equation, least-square non-linear regression curve-fit, with GraphPad Prism software (GraphPad Software, Inc). Each assay was repeated at least three times with duplicate wells for each compound; the reported values (mean±SD, nM) are calculated from the average of all assays.
# S1P4 = S1P4 (Homo sapiens (Human), UniProt O95977); experiment: as above
# S1P4, sequence (O95977 whole entry): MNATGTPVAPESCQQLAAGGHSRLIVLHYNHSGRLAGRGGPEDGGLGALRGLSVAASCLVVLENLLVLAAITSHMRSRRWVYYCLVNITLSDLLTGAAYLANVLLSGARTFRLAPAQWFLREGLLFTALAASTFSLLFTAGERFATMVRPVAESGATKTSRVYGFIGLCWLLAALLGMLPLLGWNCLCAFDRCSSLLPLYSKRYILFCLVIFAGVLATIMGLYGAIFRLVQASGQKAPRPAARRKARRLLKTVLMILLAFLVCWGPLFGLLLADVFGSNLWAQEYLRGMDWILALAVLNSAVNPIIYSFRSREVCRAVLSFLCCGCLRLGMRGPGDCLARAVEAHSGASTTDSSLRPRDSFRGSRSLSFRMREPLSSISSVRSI
# Method: as §1
# S1P2-S1P5 = experiment: [32P]S1P competitive binding assay, other subtypes reported together; parameters: species or system human; conditions: one bound for all four subtypes
# Method: as §1
# S1P5 = S1P5 (Homo sapiens (Human), UniProt Q9H228); experiment: [32P]S1P competitive binding assay on cell membranes
# S1P5, sequence (Q9H228 whole entry): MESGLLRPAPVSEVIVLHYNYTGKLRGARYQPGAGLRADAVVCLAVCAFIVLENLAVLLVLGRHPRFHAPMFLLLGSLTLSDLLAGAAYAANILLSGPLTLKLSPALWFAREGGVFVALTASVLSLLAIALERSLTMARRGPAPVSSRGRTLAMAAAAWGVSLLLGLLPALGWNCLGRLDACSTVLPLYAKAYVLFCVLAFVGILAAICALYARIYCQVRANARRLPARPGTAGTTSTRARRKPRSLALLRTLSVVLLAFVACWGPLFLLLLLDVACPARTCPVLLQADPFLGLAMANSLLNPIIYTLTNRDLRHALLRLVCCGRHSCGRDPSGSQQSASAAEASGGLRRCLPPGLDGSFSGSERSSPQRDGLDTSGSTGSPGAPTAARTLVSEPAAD
# Method: as §1
# S1P3 = S1P3 (Homo sapiens (Human), UniProt Q99500); experiment: as above; conditions: competition against [32P]S1P, mean ± SD
# S1P3, sequence (Q99500 whole entry): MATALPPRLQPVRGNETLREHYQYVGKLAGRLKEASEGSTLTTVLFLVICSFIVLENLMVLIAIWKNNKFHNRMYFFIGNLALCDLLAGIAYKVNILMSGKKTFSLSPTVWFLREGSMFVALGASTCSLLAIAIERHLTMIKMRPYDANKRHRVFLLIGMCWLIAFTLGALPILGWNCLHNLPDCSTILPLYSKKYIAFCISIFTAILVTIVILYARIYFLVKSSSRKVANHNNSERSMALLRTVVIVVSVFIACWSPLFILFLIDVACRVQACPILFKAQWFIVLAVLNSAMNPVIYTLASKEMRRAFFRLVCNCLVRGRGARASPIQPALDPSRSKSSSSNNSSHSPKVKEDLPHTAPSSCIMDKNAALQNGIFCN
# Method: as §1
# recombinant human S1P1 = recombinant human S1P1 (Homo sapiens (Human), UniProt P21453); experiment: as above
# recombinant human S1P1, sequence (P21453 whole entry): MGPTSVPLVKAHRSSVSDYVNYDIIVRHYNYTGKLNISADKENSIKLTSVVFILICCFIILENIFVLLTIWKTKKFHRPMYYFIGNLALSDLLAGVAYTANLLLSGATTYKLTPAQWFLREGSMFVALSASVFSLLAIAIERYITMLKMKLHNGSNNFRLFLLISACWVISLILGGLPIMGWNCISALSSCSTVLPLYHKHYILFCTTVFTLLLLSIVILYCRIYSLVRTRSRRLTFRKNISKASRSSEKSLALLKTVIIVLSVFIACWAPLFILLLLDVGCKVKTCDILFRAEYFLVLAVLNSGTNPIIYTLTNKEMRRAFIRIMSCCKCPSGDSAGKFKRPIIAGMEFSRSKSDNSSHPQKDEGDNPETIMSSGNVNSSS
# Method: as §1
# S1P1 = S1P1 (Rattus norvegicus (Rat), UniProt P48303); experiment: MicroPET and tracer kinetic modeling in EAE rat model, lumbar spinal cord; format: in vivo; conditions: for 2TCM Vd / LoganAIF Vd: lumbar spinal cord, n = 3-4
# S1P1, sequence (P48303 whole entry): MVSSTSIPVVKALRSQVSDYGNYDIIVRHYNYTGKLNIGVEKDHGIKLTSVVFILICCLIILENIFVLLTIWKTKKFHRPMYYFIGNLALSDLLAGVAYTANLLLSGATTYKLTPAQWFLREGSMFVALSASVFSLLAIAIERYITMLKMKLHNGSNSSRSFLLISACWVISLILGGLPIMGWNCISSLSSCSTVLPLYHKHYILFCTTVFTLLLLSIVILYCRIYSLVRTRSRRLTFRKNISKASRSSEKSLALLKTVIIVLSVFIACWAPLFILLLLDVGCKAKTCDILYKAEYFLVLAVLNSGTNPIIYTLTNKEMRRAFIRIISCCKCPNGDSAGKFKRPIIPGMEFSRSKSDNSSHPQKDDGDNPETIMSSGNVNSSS
# Method: MicroPET scans were performed using an Inveon PET/CT system (Siemens Inc., Knoxville, Tenn.). […] Each rat was secured to a custom-designed acrylic bed equipped with a nosecone for gas anesthesia. PET/CT scans were conducted under 1.5-2% isoflurane anesthesia with the rat placed in transaxial position and centered with the T13 vertebral spine in the field of view. […] A list mode protocol was used with 60-min dynamic data acquisition.
# PET image data was processed using filter back projection algorithm with attenuation and scatter corrections. The data were reconstructed per time frame employing an iterative reconstructional algorithm (three-dimensional ordered subset expectation maximization (3D-OSEM), maximum a posteriori (MAP)) and corrected for decay, random coincidences, scatter, and attenuation. […] Image data was analyzed using Inveon Research Workstation software IRW 4.2 (Siemens Inc., Knoxville, Tenn.). The regions of interest (ROI), the lumbar spinal cord and bilateral common carotid arteries, were drawn over the co-registered PET/CT images using the standard protocol published previously. Time-activity curves (TACs) were obtained and were expressed as % ID/g. A two-tailed t-test was used for the comparison of the tracer uptake in EAE rat lumbar spinal cord versus sham. A P value less than 0.05 was considered statistically significant. Time-activity curves were further analyzed using 2-tissue-compartment model (2TCM), as well as Logan graphical analysis, using the ROI over bilateral common carotid arteries for image-based arterial blood input function.
# [1] = Nonhuman primate (NHP) brain microPET scan; format: in vivo, macaques; conditions: normal NHP
# Method: To examine if newly-synthesized S1P1 radioligands could cross the BBB of NHPs, two male macaques (9-10 kg) were studied with a microPET Focus 220 scanner (Concorde/CTI/Siemens Microsystems, Knoxville, Tenn.). The welfare of the animals conformed to the requirements of National Institutes of Health (NIH). This work was conducted at the Nonhuman Primate Facility of Washington University in St. Louis with approval from the IACUC. Animals were maintained in facilities with 12-hour dark and light cycles, given access to food and water ad libitum and provided a variety of psychologically enriching tasks to prevent inappropriate deprivation. Animals were scanned under anesthesia (induced with ketamine and glycopyrrolate and maintained with inhalation isoflurane). Core temperature was kept about 37° C. with a heated water blanket. The head was secured in a head holder with the brain in the center of the field of view.
# PET scans were collected from O-120 min with the following time frames: 3×1 min, 4×2 min, 3×3 min and 20×5 min. Emission data were corrected for dead time, scatter and attenuation and then reconstructed to a final resolution of 2.0 mm full-width half maximum in all 3 dimensions at the center of the field of view. PET and MRI images were co-registered using automated image registration program (AIR). For quantitative analyses, three-dimensional ROI (the global brain) was identified on the MRI and transformed to the reconstructed PET images to obtain time-activity curves. Activity measures were standardized to body weight and the dose of radioactivity injected to yield standardized uptake value (SUV).
# [2] = competition against [32P]S1P, mean ± SD
# [3] = competition against [32P]S1P, membranes with recombinant human S1P1, mean ± SD, read-out: S1P1 IC50 ± SD
Compound,IC50 (S1P2),IC50 (S1P2-S1P5),IC50 (S1P3),IC50 (recombinant human S1P1; [3]),IC50 (S1P4),IC50 (S1P5),IC50 (recombinant human S1P1; read-out: S1P1 IC50 ± SD),other results
OCCOCCOCc1ccc(-c2noc(-c3ccc(OCC[18F])c(C(F)(F)F)c3)n2)cc1 [[^18F]12b],–,–,–,–,–,–,–,"Visualization of rat lumbar spinal cord by microPET (S1P1; EAE and sham rats): clear visualization of lumbar spinal cord; 2TCM Vd (S1P1; EAE rats): 2.30 ± 0.13 mL/g; LoganAIF Vd (S1P1; EAE rats): 2.27 ± 0.18 mL/g; Tracer uptake in lumbar spinal cord, EAE (S1P1; EAE rats, summed SUV values 10-60 min post injection, n=3-4): 1.20±0.04 SUV; 2TCM Vd (S1P1; Sham rats): 1.76 ± 0.19 mL/g; LoganAIF Vd (S1P1; Sham rats): 1.75 ± 0.21 mL/g; Increase of tracer uptake in EAE rat lumbar spinal cord compared with shams (S1P1; microPET, 10-60 min post injection): 22.9%; Averaged tracer uptake in sham rat spinal cord (S1P1; sham rats, 10-60 min post injection): 1.0-1.1; Tracer uptake in lumbar spinal cord, sham (S1P1; sham rats, summed SUV values 10-60 min post injection, n=3-4): 0.98±0.09 SUV; Max SUV value in total brain ([1]; microPET): ~2.4 SUV; Blood-brain barrier crossing, NHP brain ([1]; microPET, listed as 18F-TZ4881): able to cross the blood brain barrier; also recorded: able to cross the BBB; Time to max SUV in total brain ([1]; post injection): ~5 min"
"OCc1cn(Cc2ccc(-c3noc(-c4ccc(OCCF)c(C(F)(F)F)c4)n3)cc2)nn1 [Compound 22b, (1-(4-(5-(4-(2-Fluoroethoxy)-3-(trifluoromethyl)phenyl)-1,2,4-oxadiazol-3-yl)benzyl)-1H-1,2,3-triazol-4-yl)met-hanol]",> 1000 nM,> 1000 nM,> 1000 nM,9.7 ± 1.6 nM,> 1000 nM,> 1000 nM,< 20 nM,"IC50 (recombinant human S1P1; Table 9, avg, n = 2-3, read-out: S1P1 IC50, second value in parentheses (average) (converted)): 9.8 nM; IC50 (recombinant human S1P1; competition against [32P]S1P, membranes with recombinant human S1P1, mean ± SD, listed as TZ43113, read-out: S1P1 IC50 ± SD): 9.7 nM and 9.65 nM; IC50 (recombinant human S1P1; competition against [32P]S1P, membranes with recombinant human S1P1, mean ± SD, listed as TZ-43-113, read-out: S1P1 IC50 ± SD): 9.65 ± 1.61 nM; Fold decreased S1P1 IC50 compared to 22a (recombinant human S1P1; vs corresponding acid 22a): 35 fold"
NS(=O)(=O)c1ccc(-c2noc(-c3ccc(OCCF)c(C(F)(F)F)c3)n2)cc1 [Compound 19a],> 1000 nM,> 1000 nM,> 1000 nM,–,> 1000 nM,> 1000 nM,< 20 nM,"IC50 (recombinant human S1P1; competition against [32P]S1P, membranes with recombinant human S1P1, mean ± SD, listed as TZ-43-73, read-out: S1P1 IC50 ± SD): 13.2 ± 3.23 nM"
"OCc1ccc(-c2noc(-c3ccc(OCCF)c(C(F)(F)F)c3)n2)cc1 [Compound 8c, (4-(5-(4-(2-Fluoroethoxy)-3-(trifluoromethyl)phenyl)-1,2,4-oxadiazol-3-yl)phenyl)methanol]",> 1000 nM,> 1000 nM,> 1000 nM,–,> 1000 nM,> 1000 nM,–,–
"NNC(=O)c1ccc(-c2noc(-c3ccc(OCCF)c(C(F)(F)F)c3)n2)cc1 [Compound 20c, 4-(5-(4-(2-Fluoroethoxy)-3-(trifluoromethyl)phenyl)-1,2,4-oxadiazol-3-yl)benzohydrazide]",> 1000 nM,> 1000 nM,> 1000 nM,–,> 1000 nM,> 1000 nM,< 20 nM,"IC50 (recombinant human S1P1; competition against [32P]S1P, membranes with recombinant human S1P1, mean ± SD, listed as TZ-43-153, read-out: S1P1 IC50 ± SD): 14.7 ± 1.67 nM; Fold decreased S1P1 IC50 compared to 19b (recombinant human S1P1; vs 19b): 5 fold"
OCCOCc1ccc(-c2noc(-c3ccc(OCCF)c(C(F)(F)F)c3)n2)cc1 [Compound 12a],> 1000 nM,> 1000 nM,> 1000 nM,–,> 1000 nM,> 1000 nM,–,–

# Now from value to compound, other results behind:
IC50 (S1P2),IC50 (S1P2-S1P5),IC50 (S1P3),IC50 (recombinant human S1P1; [3]),IC50 (S1P4),IC50 (S1P5),IC50 (recombinant human S1P1; read-out: S1P1 IC50 ± SD),Compound,other results
> 1000 nM,> 1000 nM,> 1000 nM,6.3 ± 1.3 nM,–,–,–,"3-((4-(5-(4-(2-Fluoroethoxy)-3-(trifluoromethyl)phenyl)-1,2,4-oxadiazol-3-yl)benzypamino)propanoic acid [Compound 26b]",IC50 (S1P4; [2]): > 1000 nM; IC50 (S1P5; [2]): > 1000 nM
> 1000 nM,> 1000 nM,> 1000 nM,–,–,–,–,OCC(O)COCc1ccc(-c2noc(-c3ccc(OCCF)c(C(F)(F)F)c3)n2)cc1 (centres unmarked) [Compound 8h],IC50 (S1P4; [2]): > 1000 nM; IC50 (S1P5; [2]): > 1000 nM; Fold increase of S1P1 binding potency compared to 8g (recombinant human S1P1; vs 8g): 10 fold
> 1000 nM,> 1000 nM,> 1000 nM,15.4 ± 3.3 nM,> 1000 nM,> 1000 nM,< 20 nM,OCCOCCOCc1ccc(-c2noc(-c3ccc(OCCF)c(C(F)(F)F)c3)n2)cc1 [Compound 12b],Fold decrease of S1P1 binding potency compared to 8c (recombinant human S1P1; vs 8c): approximately 2 fold
